Data reported in patent US6087346A, “Sigma receptor ligands and the use thereof” (Cambridge Neuroscience, Inc., priority 1996, dated 2000).
Structures can show the parent of a compound that is named as a salt. Where two headings read alike, the source gives them in different places.

How the values were obtained:
[1] = molecular target: sigma receptor (sigma-1 and sigma-2 sites); test: Sigma receptor binding assay ([^3 H]DTG, guinea pig brain membrane homogenates); conditions: for Ki: Table II, [^3 H]DTG 1.4 nM, guinea pig brain membranes, pH 7.4, 90 minutes room temperature, IC50 values indicated as Ki, read-out: Ki nM (± SEM); for IC50: Example 3 table, tested by the [^3 H]DTG assay of Example 2
Procedure: Briefly, frozen whole guinea-pig brains (Biotrol, Indianapolis, Ind.) were homogenized in 10 volumes (w/v) of ice-cold 320 mM sucrose using a Brinkman® polytron. The homogenate was centrifuged at 1,000× g for 20 minutes at 4° C. The supernatant was centrifuged at 20,000× g for 20 minutes at 4° C. The resulting pellet was resuspended in 10 initial volumes of 50 mM Tris/HCI buffer at pH 7.4 and centrifuged at 20,000× g for 20 minutes at 4° C. The resulting pellet was resuspended in 5 initial volumes ice-cold 50 mM Tris/HCl (pH 7.4), and the final volume was adjusted to yield a protein concentration of 3 mg/mL.
The protein concentration in the 1-ml final incubation volume was 800 μg/ml, corresponding to 32 mg of brain tissue (original wet weight) and to a tissue concentration within the linear range for specific binding.
The volume of the assays may be changed, specifically halved, so long as the concentrations of the constituents remain the same. […] Incubations were terminated after 90 minutes at room temperature by addition of 4 ml of ice-cold 50 mM Tris/HCI (pH 7.4) and rapid filtration of the membrane suspension through Whatman® GF/B or Schieicher & Schuell #32 glass-fiber filters under vacuum, using a 48-well cell harvester (Brandel). The filters were washed 2 times with 4 mL of 50 mM Tris/HCI (pH 7.4). Each filter was suspended in 10 ml Cytoscint (ICI), and radioactivity was measured by liquid scintillation spectrometry at a counting efficiency of approximately 50%. IC50 values (indicated as Ki in Tables II below) were determined by non-linear regression analysis.

sigma-2 receptor = molecular target: T1, sigma-2 receptor (Cavia porcellus, UniProt H0V073); test: Sigma-2 binding assay ([^3 H]DTG in the presence of (+)pentazocine); parameters: species or system guinea pig
T1 construct: of guinea pig brain membranes in a total volume of 0.5 ml; from tissue; host or cells: guinea pig brain membranes
T1 sequence (H0V073 1-176): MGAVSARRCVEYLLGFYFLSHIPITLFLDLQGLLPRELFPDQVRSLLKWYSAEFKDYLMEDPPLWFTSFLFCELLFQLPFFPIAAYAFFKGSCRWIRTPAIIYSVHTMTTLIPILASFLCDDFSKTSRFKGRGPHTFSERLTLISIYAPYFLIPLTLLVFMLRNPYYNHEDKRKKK
Text: Protocols of the Sigma-1 and Sigma-2 binding assays employed are as follows:

sigma-1 receptor [2] = molecular target: T2, sigma-1 receptor (Cavia porcellus, UniProt Q60492); test: biochemical
T2 sequence (Q60492 whole entry): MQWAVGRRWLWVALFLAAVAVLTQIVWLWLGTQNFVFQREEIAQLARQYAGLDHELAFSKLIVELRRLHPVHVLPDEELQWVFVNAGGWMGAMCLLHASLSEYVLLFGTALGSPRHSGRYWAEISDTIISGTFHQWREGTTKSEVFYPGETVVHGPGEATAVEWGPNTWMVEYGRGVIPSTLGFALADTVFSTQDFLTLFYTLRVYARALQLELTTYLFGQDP
Procedure: (§1) Non-specific binding was determined in the presence of 10 μM haloperiodol. For the standard equilibrium assay the mixtures were incubated for 4-5 hours at 37° C., quenched with 4 ml of ice cold incubation buffer and rapidly filtered over Whatman GF/B glass fiber filters, followed by three 4 ml rinses with additional ice cole incubation buffer.

sigma-1 site = sigma-1 site (Cavia porcellus, UniProt Q60492); conditions: Hellewell and Bowen (1990); cited from earlier work
Sequence of sigma-1 site (Q60492 whole entry): as above

sigma-1 receptor [3] = molecular target: T2, sigma-1 receptor; conditions: pH 8
Procedure: as §1

[4] = tested on: NMDA-induced toxicity and seizures; conditions: in vivo; Pontecorvo et al.; cited from earlier work
opiate receptors = conditions: cited from earlier work
PCP receptors = conditions: cited from earlier work

| SMILES | Ki [1] [nM] | IC50 (sigma-2 receptor; read-out: Sigma 2 IC50) [nM] | Ki (sigma-1 receptor [2]) [nM] | other results |
| --- | --- | --- | --- | --- |
| O=C(CCCCN1CCC(c2ccccc2)CC1)c1ccc(F)cc1 [Compound 5] | 0.8 | – | – | – |
| O=C(CCCCN1CCCCC1)c1cccc(Cl)c1 [Compound 20] | 3.8 | – | – | – |
| COc1cccc(C(=O)CCCCN2CCCCC2)c1 [Compound 22] | 20.7 | – | – | – |
| COc1ccc(CCCCCN2CCCCC2)cc1 [Compound 24] | 4.7 | – | – | – |
| O=C(CCCCN1CCC(c2ccccc2)CC1)c1cccc(Cl)c1 [Compound 8] | 1.1 | – | – | – |
| c1ccc(CCCCCNCCc2ccccc2)cc1 | – | – | – | IC50 [1]: 3.66 nM |
| CN(CCCCCc1ccccc1)CCc1cccc(C(F)(F)F)c1 | – | 14.4 | 1.74 | – |
| c1ccc(CCCCCN2CCC(c3ccccc3)CC2)cc1 [Compound 14] | 0.9 | – | – | – |
| CC1CCN(CCCC=C(c2ccccc2)c2ccccc2)CC1 | – | 25 | – | – |
| CCN(CC)CCCCC(c1ccccc1)c1ccccc1 | – | 51.2 | 1.42 | – |
| c1cc2c(cc1CCCCCN1CCCCC1)OCO2 [drawing 25] | – | – | – | IC50 [1]: 2.25 nM |
| COc1ccc(C(=O)CCCCN2CCCCC2)cc1 [Compound 21] | 9.9 | – | – | – |
| CC(C)=CCN1CCC2(C)c3cc(O)ccc3CC1C2C (single isomer, unassigned; (+)) [(+)pentazocine] | – | – | – | affinity for the sigma-1 site compared to the sigma-2 site (sigma-1 site): nearly two orders of magnitude higher affinity for the sigma-1 site compared to the sigma-2 site |
| O=C(CCCCN1CCCCC1)c1ccc(Cl)cc1 [Compound 19] | 1.2 | – | – | – |
| CN(CCCCCc1cccc(C(F)(F)F)c1)CCc1ccccc1 | – | 3.57 | 0.59 | – |
| CN(CCCC=C(c1ccccc1)c1ccccc1)CCc1ccccc1 | – | 40.8 | 0.9 | – |
| O=C(CCCCN1CCC(c2ccc(Cl)cc2)CC1)c1ccc(Cl)cc1 [Compound 10] | 1.8 | – | – | – |
| O=C(CCCCN1CC=C(c2ccc(Cl)cc2)CC1)c1ccc(Cl)cc1 [Compound 12] | 4.3 | – | – | – |
| COc1cccc(C(=O)CCCCN2CCC(c3ccccc3)CC2)c1 [Compound 9] | 1 | – | – | – |
| CN(CCCCC(c1ccccc1)c1ccccc1)CCc1ccccc1 | – | 31.5 | – | – |

| SMILES | Ki [1] [nM] | IC50 (sigma-2 receptor; read-out: Sigma 2 IC50) [nM] | Ki (sigma-1 receptor [2]) [nM] | other results |
| --- | --- | --- | --- | --- |
| c1ccc(CCCCCN2CCCC(Cc3ccccc3)C2)cc1 (stereo not drawn) | – | 4.17 | 0.07 | – |
| c1ccc(CCCCCN2CCCCC2Cc2ccccc2)cc1 (stereo not drawn) | – | 10.4 | 0.36 | – |
| O=C(CCCCN1CC=C(c2ccc(F)cc2)CC1)c1ccc(Cl)cc1 [Compound 13] | 2 | – | – | – |
| CN(CCCCCc1ccccc1)CCc1ccccc1 | – | 4.98 | – | IC50 [1]: 1.3 nM; Ki (sigma-1 receptor [3]): 0.25 nM |
| CCN(CC)CCCCCc1ccccc1 | – | 88.5 | 6.01 | – |
| c1cc2c(cc1CCCCCN1CCCCC1)OCO2 [drawing 38] | – | 63.4 | 0.32 | – |
| O=C(CCCCN1CCC(c2ccccc2)CC1)c1ccccc1 [Compound 6] | 0.9 | – | – | – |
| CN(CCCCC(=O)c1cccc(C(F)(F)F)c1)CCc1ccccc1 | – | 1.27 | 0.71 | – |
| COc1ccc(C(=O)CCCCN2CCC(c3ccccc3)CC2)cc1 [Compound 2, 1-(4-Methoxyphenyl)-5-(4-phenyl-l-piperidino)pentanone Hydrochloride] | 0.8 | – | – | – |
| COc1ccc(CCCCCN2CCC(c3ccccc3)CC2)cc1 [Compound 16] | 1.2 | – | – | – |
| c1ccc(Cc2cccc(CN3CCCCC3)c2)cc1 | – | 98.2 | 5.44 | – |
| CN1CCN(CCCCCc2ccccc2)CC1 | – | 78.9 | 1.44 | – |
| CC(Cc1ccccc1)NCCCCCc1ccccc1 (stereo not drawn) | – | – | 0.54 | IC50 (sigma-2 receptor): 10.9 nM |
| CC1CCN(CCCCC(c2ccccc2)c2ccccc2)CC1 | – | – | – | IC50 (sigma-2 receptor; about 2 nM [^3 H]DTG with 200 nM (+)pentazocine, guinea pig brain membranes, pH 7.4, 30 minutes room temperature, read-out: Sigma 2 IC50): 16.7 nM; Ki (sigma-1 receptor [3]): 0.1 nM |
| c1ccc(CCCCCN2CCCC2)cc1 | – | 69.7 | 0.76 | IC50 [1]: 4.95 nM |
| OC(CCCN1CCN(c2ncc(F)cn2)CC1)c1ccc(F)cc1 (stereo not drawn) [BMY-14802] | – | – | – | protective effects against NMDA-induced toxicity and seizures [4]: in vivo protective effects against NMDA-induced toxicity and seizures |
| COc1cccc(CCCCCN2CCCCC2)c1 [Compound 25] | 10.7 | – | – | – |
| CC(Cc1ccccc1)NCCCCc1ccccc1 (stereo not drawn) | – | – | 7.38 | IC50 (sigma-2 receptor): 47.5 nM |
| c1ccc(CNCCCN2CCN(c3ccccc3)CC2)cc1 | – | 101 | 1.96 | – |
| CC1CCN(CCCCCc2ccccc2)CC1 | – | 7.1 | 0.08 | – |

| SMILES | Ki [1] [nM] | IC50 (sigma-2 receptor; read-out: Sigma 2 IC50) [nM] | Ki (sigma-1 receptor [2]) [nM] | other results |
| --- | --- | --- | --- | --- |
| c1ccc(CCNCCCCC(c2ccccc2)c2ccccc2)cc1 | – | 100 | 0.68 | – |
| O=C(CCCCN1CCC(c2ccc(Cl)cc2)CC1)c1ccc(Cl)c(Cl)c1 [Compound 1, 1,2,4-Dichlorophenyl-5-[4-(4-chlorophenyl)-1-piperidino]pentanone Hydrochloride] | 1.8 | – | – | – |
| CN1CCC(CCCCCc2ccccc2)CC1 | – | 97.3 | 0.6 | – |
| c1ccc2c(c1)C1CC2C(N2CCCCC2)C1 (stereo not drawn) | – | – | – | IC50 (sigma-2 receptor; read-out: Sigma 2 IC50, about 2 nM [^3 H]DTG with 200 nM (+)pentazocine, guinea pig brain membranes, pH 7.4, 30 minutes room temperature): 5.29 nM; Ki (sigma-1 receptor [3]): 0.13 nM |
| CNC(CCCCCc1ccccc1)CCCCCc1ccccc1 | – | – | – | IC50 [1]: 2.97 nM |
| Clc1ccc(CCCCCN2CCCCC2)cc1 [Compound 3, N-[5-(4-Chlorophenyl)pentyl]piperidine Hydrochloride] | 2 | – | – | – |
| C=CCN1CCC2(C)c3cc(O)ccc3CC1C2C (stereo not drawn) [NANM, N-allyl normetazocine] | – | – | – | affinity at typical opiate receptors (opiate receptors): low affinity; affinity at PCP receptors (PCP receptors): significant affinity |
| O=C(CCCCN1CCCCC1)c1ccc(F)cc1 [Compound 18] | 6.7 | – | – | – |
| O=C(CCCCN1CCCCC1)c1ccccc1 [Compound 17] | 25.2 | – | – | – |
| Clc1ccc(CCCCCN2CCC(c3ccccc3)CC2)cc1 [Compound 15] | 1.8 | – | – | – |
| CCN(CC)CCOC(=O)C1(c2ccccc2)CCCC1 [caramiphen] | – | – | – | protective effects against NMDA-induced toxicity and seizures [4]: in vivo protective effects against NMDA-induced toxicity and seizures |
| c1ccc(CCCCCN2CCCCC2c2ccccc2)cc1 (stereo not drawn) | – | 4.7 | 0.16 | – |
| O=[N+]([O-])c1ccc(CCCCCN2CCCCC2)cc1 | – | 9.91 | 0.16 | – |
| C(CCCNCCc1ccccc1)=C(c1ccccc1)c1ccccc1 | – | 142 | – | – |
| O=C(CCCCN1CCC(O)(c2ccc(Cl)cc2)CC1)c1ccc(F)cc1 [Compound 4] | 2.6 | – | – | – |
| CN(CCCCC(O)c1cccc(C(F)(F)F)c1)CCc1ccccc1 (stereo not drawn) | – | 3.02 | 0.95 | – |
| O=C(CCCCN1CCC(c2ccccc2)CC1)c1ccc(Cl)cc1 [Compound 7] | 0.5 | – | – | – |
| c1ccc(CCCCCN2CCCCC2)cc1 [Compound 23] | 1.9 | – | – | – |
| CN1CCC(=CCCCCc2ccccc2)CC1 | – | 258 | 9.87 | – |
